Experimental data: patent US20080027087A1 (AMPLA Pharmaceuticals, Inc., priority 2006, published 2008)

How the values were obtained:
[1] = body weight of diet-induced obese male C57BL/6J mice, repeated oral administration for 28 days; type: in vivo; details: for reduction of body weight: 28 days dosing, diet-induced obese mice
Experimental: Sibutramine, which is currently used clinically, and rimonabant, which has recently received regulatory approval for the management of obesity were used as reference compounds.
Sixty-five C57BL/6J mice (7-8 weeks of age) were ordered from Charles River, Margate, Kent. Mice were group housed in polypropylene cages with free access to a high fat diet (D12451 45% of Kcal derived from fat; Research Diets, N.J., USA) and tap water at all times. Animals were maintained at 21±4° C. and 55±20% humidity on a normal phase 12 h light-dark cycle (lights on 04:30 h)
Animals were exposed to the high fat diet for 16 weeks. During this time body weight was recorded weekly. At the end of 14 weeks animals were singly housed in polypropylene cages for a further two week period (weeks 14-16) and placed on reverse phase lighting (lights off for 8 h from 9.30-17.30 h) during which time the room was illuminated by red light. Animals were dosed with vehicle orally throughout the baseline period. Body weight and food and water intake was recorded daily. Towards the end of the baseline period animals were allocated to one of seven groups (see table 2 below). Upon completion of the baseline period, mice were dosed for 28 days with vehicle or test drug as described below.
Body weight and food and water intake were recorded daily. Following drug administration the animals were examined and any overt behaviour was recorded. For all dosing, the morning session was timed such that approximately half the mice were dosed at the time of lights out (09:30).
The test compounds were dissolved in 1% methylcellulose. […] Drug doses were expressed as free base.
Resulting body weights, food intake and water intake were expressed as mean values ±SEM, and the SEMs are calculated from residuals of the statistical model. Body weight data was analysed by ANCOVA with Day 1 as covariate followed by appropriate comparisons (two-tailed) to determine significant differences from the control group. […] Daily food and water intake data was analysed by ANOVA.

[2] = target: T1, CB1 receptor (Homo sapiens, UniProt P21554); assay: functional activity versus the CB1 receptor
T1 sequence (P21554 whole entry): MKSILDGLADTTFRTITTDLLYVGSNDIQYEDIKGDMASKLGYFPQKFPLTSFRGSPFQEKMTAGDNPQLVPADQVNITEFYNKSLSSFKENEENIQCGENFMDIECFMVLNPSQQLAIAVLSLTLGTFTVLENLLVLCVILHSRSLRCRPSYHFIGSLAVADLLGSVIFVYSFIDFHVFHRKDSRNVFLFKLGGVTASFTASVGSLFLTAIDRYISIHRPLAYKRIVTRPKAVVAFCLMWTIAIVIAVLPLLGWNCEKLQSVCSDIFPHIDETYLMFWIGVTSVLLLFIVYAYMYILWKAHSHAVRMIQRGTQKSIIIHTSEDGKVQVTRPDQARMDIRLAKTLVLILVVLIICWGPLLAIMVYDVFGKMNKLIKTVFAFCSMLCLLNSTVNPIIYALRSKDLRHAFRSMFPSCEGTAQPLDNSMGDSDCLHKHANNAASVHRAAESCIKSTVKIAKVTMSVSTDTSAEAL

[3] = acute administration: wet mash intake, food intake and body weight in lean male C57BL/6J mice; type: in vivo; details: 10 mg/kg orally, one-way ANOVA
[4] = target: T2, mouse CB1 (mouse brain membrane) (Mus musculus, UniProt P47746); assay: competition ligand binding assay, mouse brain membrane preparations
T2 construct: human CB1 receptors or mouse brain membrane preparations in 96-well plate format; from tissue; host or cells: mouse brain membrane preparations
T2 sequence (P47746 whole entry): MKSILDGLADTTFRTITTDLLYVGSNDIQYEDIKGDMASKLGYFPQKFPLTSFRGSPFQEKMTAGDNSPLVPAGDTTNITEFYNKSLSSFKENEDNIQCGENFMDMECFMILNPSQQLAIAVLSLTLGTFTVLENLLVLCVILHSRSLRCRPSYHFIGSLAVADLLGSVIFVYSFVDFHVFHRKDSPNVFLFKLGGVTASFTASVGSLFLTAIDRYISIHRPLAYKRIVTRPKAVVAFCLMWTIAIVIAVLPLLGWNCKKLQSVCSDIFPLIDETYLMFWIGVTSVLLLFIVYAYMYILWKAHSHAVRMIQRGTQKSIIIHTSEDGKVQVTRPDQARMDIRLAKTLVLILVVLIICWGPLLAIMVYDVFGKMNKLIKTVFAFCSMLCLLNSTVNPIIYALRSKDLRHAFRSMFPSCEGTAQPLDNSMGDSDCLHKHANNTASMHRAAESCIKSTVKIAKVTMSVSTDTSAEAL
Experimental: (§1) Competition ligand binding assays were performed with the non-selective cannabinoid receptor agonist ([^3H]CP 55,940) (0.75 nM) in the binding buffer containing 50 mM Tris-HCl, pH 7.4, 3 mM MgCl2, 1 mM EDTA, 0.2% BSA using CHO-k1 cell membranes stably expressing human CB1 receptors or mouse brain membrane preparations in 96-well plate format. The receptor membranes (10 μg/well) were pre-incubated with different concentrations of tested compounds in the binding buffer at room temperature for 30 min prior to addition of 0.75 nM [^3H]CP 55,940 in a final volume of 100 μl. The binding was carried out at room temperature for another 2 h. To determine the non-specific binding, experiments were also performed in the presence of 10 μM unlabeled CP 55,940. Binding was terminated by addition of cold binding buffer and filtrated on Whatman GF/B glass-fiber filters using a sampling manifold. The filters were washed 6 times with cold binding buffer and air-dried overnight. The radioactivity was quantitated on a TopCounter (PerkinElmer) after adding scintillation fluid. Specific binding was defined as the difference between the binding in the presence and absence of 10 μM unlabeled CP 55, 940.

[5] = target: T1, CB1 receptor; assay: dissociation kinetics assay with [3H]CP 55,940 on CHO-k1 cell membranes; type: binding; set-up: expressed in transfected cells; host or cells: CHO-k1 cell membranes; details: 0.75 nM [3H]CP 55,940, room temperature, FIG. 3
Experimental: Dissociation kinetics assays were performed with the non-selective cannabinoid receptor agonist ([^3H]CP 55,940) (0.75 nM) in the binding buffer containing 50 mM Tris-HCl, pH 7.4, 3 mM MgCl2, 1 mM EDTA, 0.2% BSA using CHO-k1 cell membranes stably expressing human CB1 receptors in 96-well plate format. The CBI receptor membranes (10 μg/well) were incubated with 0.75 nM [^3H]CP 55,940 in 100 μl binding buffer at room temperature for 2 h. Dissociation was initiated with addition of 100 μl unlabeled CP 55,940 (10 μM) in binding buffer in the absence or presence of different concentrations of compounds (compound 7). Dissociation was carried out at room temperature for indicated time. To determine the non-specific binding, experiments were also performed in the presence of 10 μM unlabeled CP 55,940. Binding was terminated by addition of cold binding buffer and filtrated on Whatman GF/B glass-fiber filters using a sampling manifold. The filters were washed 6 times with cold binding buffer and air-dried overnight. The radioactivity was quantitated on a TopCounter (PerkinElmer) after adding scintillation fluid. Specific binding was defined as the difference between the binding in the presence and absence of 10 μM unlabeled CP 55,940.

[6] = target: T3, CB2 receptor (Homo sapiens, UniProt P34972); assay: Ca2+i response to 2-AG in CB2 receptor bearing cells, dose-response with or without compound; type: cell-based; details: 2-AG with or without compound, FIG. 2
T3 construct: host or cells: CB2 receptor bearing cells (host not described)
T3 sequence (P34972 whole entry): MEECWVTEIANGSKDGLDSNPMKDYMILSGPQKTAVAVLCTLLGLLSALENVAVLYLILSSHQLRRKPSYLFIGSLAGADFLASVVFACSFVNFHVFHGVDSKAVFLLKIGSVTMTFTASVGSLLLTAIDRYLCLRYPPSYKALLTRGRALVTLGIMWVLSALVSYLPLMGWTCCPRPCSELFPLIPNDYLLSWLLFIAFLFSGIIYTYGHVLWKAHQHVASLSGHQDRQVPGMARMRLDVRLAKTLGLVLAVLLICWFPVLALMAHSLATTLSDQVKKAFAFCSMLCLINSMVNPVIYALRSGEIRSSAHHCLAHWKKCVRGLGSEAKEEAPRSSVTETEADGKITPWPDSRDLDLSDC

[7] = target: T4, Human Cannabinoid 1 (CB1) receptor (Homo sapiens, UniProt P21554); assay: Ca2+i response to 2-AG in CB1 cells (Indo-1, DSIS flow cytometry), dose-response with or without compound; type: cell-based; details: 2-AG with or without compound, FIG. 2
T4 construct: expressed in transfected cells; host or cells: CHO cells stably expressing GqΔGi chimera
T4 sequence (P21554 whole entry): as the sequence (P21554 whole entry) above
From the text: cDNA for the G protein GqΔGi chimera was generated by PCR and inserted into the polylinker region of the pcDNA3/hygro+ vector (Invitrogen). Stable expression of GqΔGi chimera protein in CHO cell line was generated under hygromycin selection. Human Cannabinoid 1 (CB1) cDNA was inserted into the polylinker region of the pcDNA3.1/(+) vector (Invitrogen) and DNA was introduced into the GqΔGi/CHO cell line by Lipofectamine reagent (Invitrogen). […]
Cell line optimization was done by a proprietary method using our novel automated Direct Sample Injection System (DSIS, ‘Direct mixing and injection for high throughput fluidic systems’ Patent Application Number 20050249635) in conjunction with response. Intracellular Ca^2+ (Ca^2+i) levels were measured with Ca^2+ chelating fluorescent probes. […]
The probe-loaded CB1 and Control cell mixture was placed in the Cell Suspension System on the DSIS where they were continuously rocked to keep them in a suspended state. […] The DSIS software, NVS Sampler, recorded a timing file and the CyAn software, Summit, recorded a data file. These two files were then compiled and analyzed by our proprietary software, NVS Analyzer, to determine the percent of cells that responded to each concentration. The data was transferred to GraphPAD Prism for a non-linear regression curve fit that determined the EC50. […]

[8] = target: T1, CB1 receptor; assay: competition ligand binding assay, CHO-k1 cell membranes; set-up: expressed in transfected cells; host or cells: CHO-k1 cell membranes; details: 0.75 nM radioligand, FIG. 6
Experimental: as §1

[9] = target: T1, CB1 receptor; assay: [35S]GTPγS binding assay on CHO-k1 cell membranes; type: biochemical; set-up: expressed in transfected cells; host or cells: CHO-k1 cell membranes
Experimental: [^35S]GTPγS binding assays were performed with CHO-k1 cell membranes stably expressing human CB1 receptors in 96-well ScintiPlate (PerkinElmer). The membranes (12.5 μg/well) were preincubated with compound 7 in the binding buffer (50 mM Tris-HCl, pH 7.4, 100 mM NaCl, 3 mM MgCl2, 0.2 mM EDTA, 0.2% BSA and 10 μM GDP) at 30° C. for 30 min, then added various concentrations of agonists (WIN 55212-2 or CP 55,940) and [^35S]GTPγS (0.2 nM) in a final volume of 200 μl. Reactions were carried out at 30° C. for 60 min, followed by centrifugation of plate at […] for 15 min. After removing supernatant, the radioactivity was quantitated on a TopCounter.

SMILES: CC(C)CC(N(C)C)C1(c2ccc(Cl)cc2)CCC1 (stereo not drawn) [sibutramine]
- reduction of body weight ([1]; 20 mg/kg po): 2%

SMILES: NCCC(Oc1ccc(C(F)(F)F)cc1)c1ccccc1 (racemic) [norfluoxetine, 3-(4-trifluoromethylphenoxy)-3-phenylpropylamine]
- functional activity versus the CB1 receptor [2]: antagonist

SMILES: Cc1c(C(=O)NN2CCCCC2)nn(-c2ccc(Cl)cc2Cl)c1-c1ccc(Cl)cc1 [rimonabant]
- 24 hour body weight change, difference versus vehicle ([3]; FIG. 10): No significant differences
- daily food intake, difference versus vehicle ([3]; FIG. 15): No significant differences
- body weight, difference versus vehicle ([3]; FIG. 16): No significant differences
- reduction of body weight ([1]; 10 mg/kg po): 15%
- weight reduction as compared to vehicle, significance ([1]; day 29, po, Dunnett's test p<0.001, FIG. 8): statistically significant weight reduction

SMILES: Fc1ccc(C(OCCCc2c[nH]cn2)c2ccc(F)cc2)cc1 [compound 7]
- inhibition of agonist (CP 55940) binding ([4]; mouse brain membrane, FIG. 7): inhibited
- inhibition of antagonist/inverse agonist (SR 141716) binding ([4]; mouse brain membrane, FIG. 7): inhibited
- inhibition of binding of [3H]CP 55,940 ([4]; mouse brain membranes, 0.75 nM radioligand, FIG. 6): almost fully inhibited
- effect on the dissociation rate of [3H]CP 55,940 [5]: no effect
- effect on the 2-AG dose response (Ca2+i) of CB2 receptor bearing cells [6]: No effect
- effect on the 2-AG dose response (Ca2+i) of CB1 cells [7]: right shift
- inhibition of binding of [3H]CP 55,940 [8]: partially inhibited
- pA2 estimation using CP 55940 as an agonist ([9]; CB1 cell line, FIG. 4): did not support an allosteric effect
- antagonist versus inverse agonist activity in [35S]GTPγS binding ([9]; response relative to basal levels, FIG. 5): inverse agonist activity

SMILES: CNCC[C@H](Oc1ccc(C(F)(F)F)cc1)c1ccccc1 [(S)-Fluoxetine]
- functional activity versus the CB1 receptor [2]: inverse agonist

SMILES: CNCC[C@@H](Oc1ccc(C(F)(F)F)cc1)c1ccccc1 [(R)-fluoxetine]
- functional activity versus the CB1 receptor [2]: antagonist
